Source: US20210330611A1, “THERAPY FOR NEUROLOGICAL DISEASES/DISORDERS” (priority 2020, published 2021)
Like-named read-outs stand apart in the source and are kept apart here.

Tests used:
[1] = system: fibrin-induced microglia activation; experiment: Image-based assay of fibrin-induced microglia activation (HTS and dose response); format: cell-based, rat; details: for inhibition at 10 µM: Rattus norvegicus, Microglia, read-out: Fibrin % inhibition
[2] = system: LPS-induced microglia activation; experiment: Image-based assay of LPS-induced microglia activation (HTS and dose response); format: cell-based, rat; details: for inhibition at 10 µM: Rattus norvegicus, Microglia, read-out: LPS % inhibition
[3] = system: fibrin- and LPS-induced microglia activation; experiment: cells; format: cell-based, rat
[4] = system: primary rat microglia; experiment: Cell toxicity (dead cells, size <150 μm2) in LPS assay
[5] = system: primary rat microglia; experiment: Cell toxicity (dead cells, size <150 μm2) in coated fibrin (cFib) assay;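 further: share of dead cells sized under 150 µm2 at 10 µM in fibrin-stimulated microglia HTS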
[6] = primary microglia HTS, 10 μM, fibrin-stimulated, cell size >800 μm^2 as marker of activation
[7] = primary microglia HTS, 10 μM, LPS-stimulated, cell size >800 μm^2 as marker of activation
[8] = HTS of 1907 compounds, quadrant by fibrin and LPS inhibition
[9] = primary microglia HTS, 10 μM, LPS assay, cell size <150 μm^2 as marker of toxicity
[10] = primary microglia HTS, 10 μM, fibrin assay, cell size <150 μm^2 as marker of toxicity
[11] = primary microglia HTS, fibrin stimulation, activation = cell size >800 μm2
[12] = 48 h, primary microglia HTS, LPS stimulation, activation = cell size >800 μm2
[13] = quadrant by fibrin and LPS inhibition in HTS of 1907 compounds
[14] = primary microglia HTS, LPS stimulation, toxicity = cell size <150 μm2
[15] = primary microglia HTS, fibrin stimulation, toxicity = cell size <150 μm2
[16] = primary microglia HTS, fibrin stimulation, increased cell size (>800 μm^2) as marker of activation
[17] = 48 h, primary microglia HTS, LPS stimulation, increased cell size (>800 μm^2) as marker of activation
[18] = primary microglia HTS, LPS stimulation, decreased size (<150 μm^2) as marker of toxicity
[19] = primary microglia HTS, fibrin stimulation, decreased size (<150 μm^2) as marker of toxicity
[20] = primary HTS, 10 μM, fibrin-stimulated primary microglia
[21] = primary HTS, 10 μM, LPS-stimulated primary microglia
[22] = primary HTS, 10 μM, LPS assay, dead cells size <150 μm2
[23] = primary HTS, 10 μM, fibrin assay, dead cells size <150 μm2

For `COc1ncnc(NS(=O)(=O)c2ccc(N)cc2)c1OC` [Sulfadoxine], the inhibition at 10 µM [1, 6] was -12%, the inhibition at 10 µM [2, 7] was 3% and the “Quadrant (FIG. 5b)” value [3, 8] was “Q4”. For the same molecule, the “LPS % cell toxicity” value [4, 9] was 0% and the “Fibrin % cell toxicity” value [5, 10] was 1%.
In the case of `CC1CCc2cc(F)cc3c(=O)c(C(=O)O)cn1c23` (centres unmarked) [Flumequine], the inhibition at 10 µM [1, 11] is reported as -1%, the inhibition at 10 µM [2, 12] is reported as 16% and the “Quadrant (FIG. 5b)” value [3, 13] is reported as “Q4”. For the same molecule, the “LPS % cell toxicity” value [4, 14] was 1% and the “Fibrin % cell toxicity” value [5, 15] was 0%.
With `NC(=O)c1ccc[n+]([C@@H]2O[C@H](COP(=O)([O-])OP(=O)(O)OC[C@H]3O[C@@H](n4cnc5c(N)ncnc54)[C@H](O)[C@@H]3O)[C@@H](O)[C@H]2O)c1` [Nadide] the inhibition at 10 µM [1, 16] was -14%, the inhibition at 10 µM [2, 17] was 5% and the “Quadrant (FIG. 5b)” value [3, 13] was “Q4”. The “LPS % cell toxicity” value [4, 18] was 0% and the “Fibrin % cell toxicity” value [5, 19] was 1%.
For `CC[C@]12CCCN3CCc4c(n(c5ccccc45)[C@@](O)(C(=O)OC)C1)[C@@H]32` [Vincamine], the inhibition at 10 µM [1, 6] was 1%, the inhibition at 10 µM [2, 7] was 20% and the “Quadrant (FIG. 5b)” value [3, 8] was “Q4”. For the same molecule, the “LPS % cell toxicity” value [4, 9] was 0% and the “Fibrin % cell toxicity” value [5, 10] was 0%.
In the case of `Cc1nnc(NS(=O)(=O)c2ccc(N)cc2)s1` [Sulfamethizole], the inhibition at 10 µM [1, 6] is reported as -3%, the inhibition at 10 µM [2, 7] is reported as 16% and the “Quadrant (FIG. 5b)” value [3, 8] is reported as “Q4”. For the same molecule, the “LPS % cell toxicity” value [4, 9] was 0% and the “Fibrin % cell toxicity” value [5, 10] was 1%.
For `CCN(CC)C(=O)c1cccnc1` [Nikethamide], the inhibition at 10 µM [1, 16] was 12%, the inhibition at 10 µM [2, 17] was -4% and the “Quadrant (FIG. 5b)” value [3, 13] was “Q4”. The “LPS % cell toxicity” value [4, 18] was 0% and the “Fibrin % cell toxicity” value [5, 19] was 0%.
For `CO[C@@]1(NC(=O)C2SC(=C(C(N)=O)C(=O)O)S2)C(=O)N2C(C(=O)O)=C(CSc3nnnn3C)CS[C@@H]21` (some centres unmarked) [Cefotetan], the inhibition at 10 µM [1, 20] was -11%, the inhibition at 10 µM [2, 21] was -5% and the “Quadrant (FIG. 5b)” value ([3]; primary HTS, 10 μM) was “Q4”. The “LPS % cell toxicity” value [4, 22] was 0% and the “Fibrin % cell toxicity” value [5, 23] was 0%.
`N#Cc1nn(-c2c(Cl)cc(C(F)(F)F)cc2Cl)c(N)c1[S+]([O-])C(F)(F)F` (centres unmarked) [Fipronil] was tested, and the inhibition at 10 µM [1, 11] was -5%, the inhibition at 10 µM [2, 12] was 12% and the “Quadrant (FIG. 5b)” value [3, 13] was “Q4”. For the same molecule, the “LPS % cell toxicity” value [4, 14] was 0% and the “Fibrin % cell toxicity” value [5, 15] was 1%.
`COC(=O)C[C@](O)(CCCC(C)(C)O)C(=O)O[C@@H]1C(OC)=C[C@]23CCCN2CCc2cc4c(cc2[C@H]13)OCO4` [Homoharringtonie] was tested, and the Fibrin % inhibition [1, 16] was 106%, the LPS % inhibition ([2]; primary microglia HTS, LPS stimulation, increased cell size (>800 μm^2) as marker of activation) was 106% and the “Quadrant (FIG. 5b)” value [3, 13] was “Q2”. For the same molecule, the “LPS % cell toxicity” value [4, 18] was 67% and the “Fibrin % cell toxicity” value [5, 19] was 90%.
In the case of Sucralfate, the Fibrin % inhibition [1, 6] is reported as −35%, the LPS % inhibition [2, 7] is reported as 22% and the “Quadrant (FIG. 5b)” value [3, 8] is reported as “Q4”. For the same molecule, the “LPS % cell toxicity” value [4, 9] was 0% and the “Fibrin % cell toxicity” value [5, 10] was 1%.
For `CCCCC(CC)COC(=O)c1ccccc1O` (centres unmarked) [Octisalate], the inhibition at 10 µM [1, 16] was -17%, the inhibition at 10 µM [2, 17] was 5% and the “Quadrant (FIG. 5b)” value [3, 13] was “Q4”. For the same molecule, the “LPS % cell toxicity” value [4, 18] was 0% and the “Fibrin % cell toxicity” value [5, 19] was 0%.
With `O=C(O)c1cc(O)c(O)c(O)c1` [Gallic Acid] the inhibition at 10 µM [1, 11] was -32%, the inhibition at 10 µM [2, 12] was 10% and the “Quadrant (FIG. 5b)” value [3, 13] was “Q4”. For the same molecule, the “LPS % cell toxicity” value [4, 14] was 0% and the “Fibrin % cell toxicity” value [5, 15] was 0%.
For `O=C(O)CCCc1ccccc1` [Gamma-Phenyl-Butyric Acid], the inhibition at 10 µM [1, 11] was -36%, the inhibition at 10 µM [2, 12] was 9% and the “Quadrant (FIG. 5b)” value [3, 13] was “Q4”. For the same molecule, the “LPS % cell toxicity” value [4, 14] was 0% and the “Fibrin % cell toxicity” value [5, 15] was 0%.
In the case of `CCCCOC(=O)c1ccc(O)cc1` [Butylparaben], the inhibition at 10 µM [1, 20] is reported as -16%, the inhibition at 10 µM [2, 21] is reported as 20% and the “Quadrant (FIG. 5b)” value ([3]; primary HTS, 10 μM) is reported as “Q4”. For the same molecule, the “LPS % cell toxicity” value [4, 22] was 0% and the “Fibrin % cell toxicity” value [5, 23] was 1%.
`COc1ccc(NS(=O)(=O)c2ccc(N)cc2)nn1` [Sulfamethoxypyridazine] was tested, and the inhibition at 10 µM [1, 6] was 21%, the inhibition at 10 µM [2, 7] was 15% and the “Quadrant (FIG. 5b)” value [3, 8] was “Q4”. For the same molecule, the “LPS % cell toxicity” value [4, 9] was 0% and the “Fibrin % cell toxicity” value [5, 10] was 1%.
With `CCCCOC(=O)c1ccc(N)cc1` [Butamben] the inhibition at 10 µM [1, 20] was -25%, the inhibition at 10 µM [2, 21] was 14% and the “Quadrant (FIG. 5b)” value ([3]; primary HTS, 10 μM) was “Q4”. The “LPS % cell toxicity” value [4, 22] was 1% and the “Fibrin % cell toxicity” value [5, 23] was 0%.
